pIC50, pKi: −log10 of the molar value. “And” between values parts separate entries of the source, which are not always exact repeats. Equal values may be shown once. Read-outs that look alike come from different tables or passages of the source.
What was measured:
Dopamine transporter = biological target: T1, Dopamine transporter (Homo sapiens, UniProt Q01959); test: Dopamine transporter uptake (h); assay type: cell-based
T1 construct: Eurofins/Cerep (contract testing)
Experimental: (§1) Compounds (1) and (2) were tested at several concentrations for IC50 or EC50 determination at target receptors. […] For antagonist assays, Kb affinity values were calculated from IC50 values using GraphPad Prism 9 (San Diego, Calif. USA).

[1] = biological target: T2, Norepinephrine transporter (h) (Homo sapiens, UniProt P23975); test: Norepinephrine transporter (h) (antagonist radioligand) competition binding; conditions: for nH: Norepinephrine transporter (h) (antagonist radioligand)
T2 construct: Eurofins/Cerep (contract testing)
T2 sequence (P23975 whole entry): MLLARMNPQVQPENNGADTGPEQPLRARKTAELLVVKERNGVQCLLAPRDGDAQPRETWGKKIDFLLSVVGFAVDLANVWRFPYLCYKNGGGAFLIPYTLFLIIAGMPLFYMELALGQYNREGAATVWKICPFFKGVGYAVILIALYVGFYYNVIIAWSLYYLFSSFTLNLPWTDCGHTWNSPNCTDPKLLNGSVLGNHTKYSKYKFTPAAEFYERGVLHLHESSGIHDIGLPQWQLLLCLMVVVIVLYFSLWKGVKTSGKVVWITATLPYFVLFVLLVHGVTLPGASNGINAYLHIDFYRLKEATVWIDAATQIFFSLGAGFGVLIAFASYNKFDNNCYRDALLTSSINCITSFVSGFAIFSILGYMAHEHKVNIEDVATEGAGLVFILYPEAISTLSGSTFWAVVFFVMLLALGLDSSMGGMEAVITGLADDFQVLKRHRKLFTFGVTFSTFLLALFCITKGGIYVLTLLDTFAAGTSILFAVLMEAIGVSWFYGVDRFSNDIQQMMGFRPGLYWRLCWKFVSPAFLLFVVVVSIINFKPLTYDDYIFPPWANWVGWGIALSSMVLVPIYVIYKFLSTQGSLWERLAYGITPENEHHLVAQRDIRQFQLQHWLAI
Experimental: (§2) For antagonist assays, Kb affinity values were calculated from IC50 values using GraphPad Prism 9 (San Diego, Calif. USA).

human M1R = biological target: T3, human M1R (Homo sapiens, UniProt P11229); test: biochemical; assay type: binding
T3 construct: host or cells: HEK293 (CRL-1573, ATCC), transient
T3 sequence (P11229 1-460): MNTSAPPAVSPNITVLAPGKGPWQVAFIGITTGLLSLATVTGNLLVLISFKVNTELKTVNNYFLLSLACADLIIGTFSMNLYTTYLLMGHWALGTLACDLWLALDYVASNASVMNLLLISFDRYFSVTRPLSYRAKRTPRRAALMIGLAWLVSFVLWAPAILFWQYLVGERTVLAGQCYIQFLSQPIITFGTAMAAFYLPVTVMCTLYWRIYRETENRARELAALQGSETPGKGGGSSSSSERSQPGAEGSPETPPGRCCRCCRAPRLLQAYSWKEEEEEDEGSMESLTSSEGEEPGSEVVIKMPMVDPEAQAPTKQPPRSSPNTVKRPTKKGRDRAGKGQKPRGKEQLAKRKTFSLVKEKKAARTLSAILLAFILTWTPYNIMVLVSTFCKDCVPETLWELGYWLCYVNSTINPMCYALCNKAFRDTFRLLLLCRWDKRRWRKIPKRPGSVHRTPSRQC
Experimental: (§3) Radioligand Competition Binding: Radioligand competition binding assays were conducted using membranes collected from transiently transfected HEK293 cells (P<20 from a procured stock, CRL-1573, ATCC, Manassas, Va., USA) as previously described (Chen, Y., et al. Drug Test Anal 11, 990-998). Briefly, cells ˜90% confluent in 10 cm plates were transfected with 5 μg human M1R, M2R, M3R, M4R or […] cDNA (cDNA resource center, Bloomsburg, Pa., USA) using a lipid-based method (LipoD293 reagent, SignaGen Laboratories, Rockville, Md., USA). Membranes were collected by centrifugation about 48 hours later and stored at −80° C. until used. […] After a 90-minute incubation at room temperature on a shaker, contents from the plates were rapidly filtered through GF/B fiberglass filter mats, pre-soaked with ice cold 50 mM Tris buffer (pH 7.4), using a Microbeta Filtermat-96 cell harvester (Perkin Elmer, Waltham, Mass., USA). Approximately 200 mL of ice cold, 50 mM Tris buffer was then vacuumed through filter mats to wash away unbound radioligand. Filter mats were dried on a hot plate and soaked in Betaplate (Perkin Elmer, Waltham, Mass., USA) scintillation fluid in plastic bags. Bags were sealed and placed in cassettes. Radioactivity was measured in a Microbeta2 Microplate Counter (Perkin Elmer, Waltham, Mass., USA), and counts per minute corresponding to each well on the plates were recorded. For full dose-response competition binding assays, increasing half-log unit concentrations of five unsubstituted PSCs were tested at M2Rs and M1Rs, with the same procedures described above.
(§4) Curve Fitting and Statistical Analyses: All data were analyzed by GraphPad 8.3.0 (San Diego, Calif., USA). Ki values were determined from data fit to both one- and two-site models. […] EC50 and IC50 values from functional assays were determined from data fit to the log(agonist) vs. response (three parameters) or log(inhibitor) vs. response (three parameters) model, respectively. Kb values were calculated from IC50 values using the Cheng-Prusoff equation with modification (see, e.g., Leff, P., and Dougall, I. G. (1993) Trends Pharmacol Sci 14, 110-112): Kb=IC50/((2+([A]/[A50])nH)1/nH−1)

[2] = biological target: T4, Norepinephrine transporter (Homo sapiens, UniProt P23975); test: Norepinephrine transporter uptake (h); assay type: cell-based
T4 construct: Eurofins/Cerep (contract testing)
T4 sequence (P23975 whole entry): as the sequence (P23975 whole entry) above
Experimental: as §2

Serotonin transporter = biological target: T5, Serotonin transporter (Rattus norvegicus, UniProt P31652); test: Serotonin transporter uptake (rat brain synaptosomes); assay type: biochemical
T5 construct: tissue Eurofins/Cerep (contract testing); host or cells: rat brain synaptosomes (per the earlier reading)
T5 sequence (P31652 whole entry): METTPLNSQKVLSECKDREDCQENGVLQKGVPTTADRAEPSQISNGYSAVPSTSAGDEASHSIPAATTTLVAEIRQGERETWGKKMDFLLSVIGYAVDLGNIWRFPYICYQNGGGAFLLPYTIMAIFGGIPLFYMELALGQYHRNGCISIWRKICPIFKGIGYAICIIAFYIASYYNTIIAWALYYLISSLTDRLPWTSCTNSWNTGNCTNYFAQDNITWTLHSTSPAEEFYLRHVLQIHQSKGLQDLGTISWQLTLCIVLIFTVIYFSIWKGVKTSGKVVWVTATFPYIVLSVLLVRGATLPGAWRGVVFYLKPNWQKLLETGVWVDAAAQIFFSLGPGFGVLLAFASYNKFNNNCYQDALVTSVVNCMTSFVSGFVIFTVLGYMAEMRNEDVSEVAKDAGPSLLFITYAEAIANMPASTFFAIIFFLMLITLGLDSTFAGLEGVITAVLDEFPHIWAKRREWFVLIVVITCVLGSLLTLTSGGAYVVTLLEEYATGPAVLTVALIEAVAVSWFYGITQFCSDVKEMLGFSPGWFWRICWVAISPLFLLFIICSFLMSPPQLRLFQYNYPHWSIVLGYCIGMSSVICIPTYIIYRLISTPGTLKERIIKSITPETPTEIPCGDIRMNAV
Experimental: as §1

human M2R = biological target: T6, human M2R (Homo sapiens, UniProt P08172); test: [3H]Scopolamine radioligand competition binding at M2R; conditions: for Ki: Affinities, Ki ± SEM, nM M2, human muscarinic M2 (N = 9), [3H]-N-methylscopolamine; for M2 Selectivity: range of Ki ratios of M1, M3, M4, M5 versus M2
T6 construct: host or cells: HEK293 (CRL-1573, ATCC), transient
T6 sequence (P08172 1-466): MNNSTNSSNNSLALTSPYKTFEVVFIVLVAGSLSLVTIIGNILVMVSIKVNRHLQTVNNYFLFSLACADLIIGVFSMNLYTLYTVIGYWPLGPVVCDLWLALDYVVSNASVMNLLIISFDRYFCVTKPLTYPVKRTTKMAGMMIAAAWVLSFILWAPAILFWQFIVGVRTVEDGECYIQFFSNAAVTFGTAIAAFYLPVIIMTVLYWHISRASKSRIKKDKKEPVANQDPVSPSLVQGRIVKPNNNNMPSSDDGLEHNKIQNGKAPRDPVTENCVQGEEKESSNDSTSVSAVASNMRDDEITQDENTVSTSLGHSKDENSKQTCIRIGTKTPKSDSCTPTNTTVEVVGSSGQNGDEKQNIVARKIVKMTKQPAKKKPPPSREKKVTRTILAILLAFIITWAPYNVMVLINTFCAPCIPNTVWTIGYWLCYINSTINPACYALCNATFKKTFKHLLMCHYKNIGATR
Experimental: as §3, §4

human M4R = biological target: T7, human M4R (Homo sapiens, UniProt P08173); test: [3H]Scopolamine radioligand competition binding at M4R
T7 construct: host or cells: HEK293 (CRL-1573, ATCC), transient
T7 sequence (P08173 1-479): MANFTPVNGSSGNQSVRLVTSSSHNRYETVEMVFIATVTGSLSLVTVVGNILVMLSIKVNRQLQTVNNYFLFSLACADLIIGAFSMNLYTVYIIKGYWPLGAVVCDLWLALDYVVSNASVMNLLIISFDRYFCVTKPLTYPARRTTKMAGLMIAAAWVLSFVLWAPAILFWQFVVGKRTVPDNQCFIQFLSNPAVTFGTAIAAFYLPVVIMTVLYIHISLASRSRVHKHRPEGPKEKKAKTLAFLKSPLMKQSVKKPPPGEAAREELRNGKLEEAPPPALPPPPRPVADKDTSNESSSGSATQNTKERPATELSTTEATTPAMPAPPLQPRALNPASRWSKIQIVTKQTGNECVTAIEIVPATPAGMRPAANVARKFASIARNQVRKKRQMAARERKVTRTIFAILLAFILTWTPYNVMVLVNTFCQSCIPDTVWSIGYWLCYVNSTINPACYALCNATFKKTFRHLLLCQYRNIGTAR
Experimental: as §3, §4

[3] = human muscarinic M1 (N = 6), [3H]-N-methylscopolamine, read-out: Affinities, Ki ± SEM, nM M1

T1 sequence (Q01959 whole entry): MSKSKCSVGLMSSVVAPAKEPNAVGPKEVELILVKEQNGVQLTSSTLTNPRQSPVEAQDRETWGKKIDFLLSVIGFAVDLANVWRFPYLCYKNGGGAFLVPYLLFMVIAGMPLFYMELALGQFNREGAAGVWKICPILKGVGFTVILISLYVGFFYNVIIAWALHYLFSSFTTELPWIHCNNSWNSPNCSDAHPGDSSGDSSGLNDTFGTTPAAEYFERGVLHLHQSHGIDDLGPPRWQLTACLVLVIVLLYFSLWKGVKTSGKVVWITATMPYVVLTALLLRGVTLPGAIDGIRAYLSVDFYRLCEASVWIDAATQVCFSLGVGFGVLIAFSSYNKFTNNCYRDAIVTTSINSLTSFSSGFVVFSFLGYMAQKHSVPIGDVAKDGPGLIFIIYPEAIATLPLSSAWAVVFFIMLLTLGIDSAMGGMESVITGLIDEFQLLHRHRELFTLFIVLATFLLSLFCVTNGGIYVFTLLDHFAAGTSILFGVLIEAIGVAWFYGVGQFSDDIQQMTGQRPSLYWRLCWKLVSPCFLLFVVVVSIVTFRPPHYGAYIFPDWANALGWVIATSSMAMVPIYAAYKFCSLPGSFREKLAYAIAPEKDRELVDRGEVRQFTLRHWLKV

**Q.** How did the pIC50 (Dopamine transporter) turn out when `CCCCC(C(=O)c1ccccc1)N1CCCCCC1` (stereo not drawn) [Compound (2), 2-(azepan-1-yl)-1-phenylhexan-1-one] was run?
**A.** 7.15

**Q.** And the pIC50 [1]?
**A.** 4.89

**Q.** And the pKi [1]?
**A.** 5.01

**Q.** What about the nH [1] of the same molecule?
**A.** 0.9

**Q.** What about the Ki (human M1R; [3]) of the same molecule?
**A.** 1490 nM

**Q.** And the pIC50 [2]?
**A.** 5.96

**Q.** And the pIC50 (Serotonin transporter)?
**A.** 4.92

**Q.** What about the Ki (human M2R) of the same molecule?
**A.** 90 nM and 89.5 nM

**Q.** What about the “M2 Selectivity” value (human M2R) of the same molecule?
**A.** 11.04-16.63

**Q.** What about the pKi (human M4R) of the same molecule?
**A.** 6.00

**Q.** Which results are given for `CCCCC(C(=O)c1ccccc1)N1CCCC1` (stereo not drawn) [α-PHP, 1-phenyl-2-(pyrrolidin-1-yl)hexan-1-one]?
**A.** fold increase in M1R affinity from α-PPP (human M1R): 121 fold; Ki (human M1R; estimate from 1 and 10 μM concentrations (N = 2), N.C. = <5% displacement of radioligand at 10 μM, read-out: estimated pKi at M1R (converted)): 2570 nM; Ki (human M1R; full dose-response [3H]Scopolamine competition binding, α-PPP and α-PBP interpolated, read-out: pKi at M1R (converted)): 1580 nM; fold increase in M2R affinity compared to α-PPP (human M2R): 302 fold; pKi (human M2R; Ki at M2Rs, full dose-response [3H]Scopolamine competition binding): 6.60; pKi (human M2R; estimated pKi at M2R, estimate from 1 and 10 μM concentrations (N = 2), N.C. = <5% displacement of radioligand at 10 μM): 6.33; pKi (human M4R): 5.71

**Q.** What does the source list for `CCCCC(C(=O)c1ccccc1)N1CCCCC1` (stereo not drawn) [Compound (1), 1-phenyl-2-(piperidin-1-yl)hexan-1-one]?
**A.** pIC50 (Dopamine transporter): 7.33; pIC50 [1]: 5.06; pKi [1]: 5.19; nH [1]: 1.6; Ki (human M1R; [3]): 1010 nM; pIC50 [2]: 5.89; pIC50 (Serotonin transporter): 4.43; Ki (human M2R): 70 nM and 69.9 nM; M2 Selectivity (human M2R): 9.72-17.76; pKi (human M4R): 5.91
